From paper PMC10269622, “Blapstin, a Diapause-Specific Peptide-Like Peptide from the Chinese Medicinal Beetle Blaps rhynchopetera, Has Antifungal Function” (Microbiology Spectrum, 2023) come the findings set out here.

Holding throughout (assay): MIC, broth double dilution
Experiment [1] concerns Staphylococcus aureus ATCC 6538. The format is cell-based. The settings on record: 96-well plate, 37°C, 16 h, absorbance at 600 nm, mean of three independent experiments, ND = no bacteriostatic activity. The method, then: (§1) The standard strain of C. albicans (ATCC 10231), three clinically isolated antibiotic-resistant strains (C. albicans 0065, C. albicans 0063, and C. albicans 6), E. coli (ATCC 8739), and S. aureus (ATCC 6538) were obtained from Kunming Medical University. T. rubrum was purchased from BeNa Culture Collection (BNCC, CAS no. 340195). Different strains of C. albicans, E. coli, and S. aureus were cultured with shaking at 37°C in YM medium and Luria-Bertani (LB) medium. T. rubrum was cultured at 28°C in potato dextrose agar (PDA) medium according to the manufacturer’s instructions.
(§2) According to CLSI protocols, the MIC is determined as a point where there is “zero detectable growth,” The MIC of blapstin against different fungal strains was determined by use of the double dilution method, namely, broth dilution determination. In brief, the different strains were grown in their corresponding media at 28°C or 37°C until they reached the exponential growth phase. Colistin E and fluconazole were used as positive controls. Blapstin was diluted to various concentrations in sterile saline: 100 μL of sterile saline was added to the second well of a sterile 96-well plate, and then 100 μL of blapstin was added to the first and second wells. The solution from the second well was double-diluted with sterile saline until the 11th well, from which 100 μL was removed. In the 12th well, no blapstin was added, and sterile saline was used as a negative control. Afterward, 100 μL of the diluted microbial solution was added to each well, followed by incubation at 37°C for 16 h. To assess the antifungal activity of blapstin against the T. rubrum strain, the spore germination rates were first determined microscopically with a hemocytometer. T. rubrum was diluted with normal saline to 1 × 10^5 CFU/mL and then incubated with various concentrations of blapstin at 28°C for 16 h. The absorbance at 600 nm was measured by a microplate reader (Epoch Etock; Biotek, USA) to estimate the inhibition of bacteria and fungi by blapstin.

Experiment [2] has as its system Escherichia coli ATCC 8739. The format is cell-based. To be noted: 96-well plate, 37°C, 16 h, absorbance at 600 nm, mean of three independent experiments, ND = no bacteriostatic activity. The method, then: as §1, §2
Experiment [3] concerns Candida albicans ATCC 10231. The class given is cell-based. To be noted: 96-well plate, 37°C, 16 h, absorbance at 600 nm, mean of three independent experiments. The method, then:
as §1, §2

The test system of a further experiment is C. albicans 6. The format is cell-based, Candida albicans. The settings on record: 37°C, 16 h, absorbance at 600 nm, mean of three independent experiments. The method, then: as §1, §2
The test system of another experiment is C. albicans 0063. The class given is cell-based, Candida albicans. The settings on record: 37°C, 16 h, absorbance at 600 nm, mean of three independent experiments. The method, then:
as §1, §2

Another experiment concerns C. albicans 0065. The format is cell-based, Candida albicans. The settings on record: 37°C, 16 h, absorbance at 600 nm, mean of three independent experiments. The method, then:
as §1, §2

Another experiment has as its system Trichophyton rubrum. The format is cell-based. To be noted: 1 × 10^5 CFU/mL, 28°C, 16 h, absorbance at 600 nm, mean of three independent experiments, ND = no bacteriostatic activity. The method, then: as §1, §2
Where [4] appears, read: clinically isolated antibiotic-resistant strain.

≈ marks a conversion by molar mass, not a printed value.

The term MIC denotes the lowest concentration that inhibits growth of the organism. A lower MIC goes with a more susceptible organism. On to Colistin E, for which the MIC came out at 81.1 µM in experiment [1]; 3 µM in experiment [2]; 22 µM in experiment [3] (standard strain); 1.1 µM against C. albicans 6 (setting [4]); 5.4 µM with C. albicans 0063 (setting [4]); 5.4 µM with C. albicans 0065 (setting [4]).

On to `OC(Cn1cncn1)(Cn1cncn1)c1ccc(F)cc1F` [Fluconazole], for which the MIC in experiment [3] (Candida albicans, ATCC10231, standard strain) was determined as 15 µM (≈ 4.59 µg/mL); with Trichophyton rubrum it was 12.2 µM (≈ 3.74 µg/mL); with C. albicans 6 (Candida albicans, 6, clinically isolated antibiotic-resistant strain), 61 µM (≈ 18.7 µg/mL); against C. albicans 0063 (Candida albicans, 0063, clinically isolated antibiotic-resistant strain), 61 µM (≈ 18.7 µg/mL); with C. albicans 0065 (Candida albicans, 0065, clinically isolated antibiotic-resistant strain) it was 70 µM (≈ 21.4 µg/mL).
